Laboratory results reported in patent US8541405B2, “Methods for the preparation of Ivabradine sulfate and form I crystal thereof” (Jiangsu Hengrui Medicine Co., Ltd., priority 2009, dated 2013).
Where a name gives a salt, the structure may show the parent alone.

What was measured:
[1] = Stability test of crystal samples placed open in the air (illumination, heating, humidity), HPLC analysis; assay type: physicochemical; settings: for HPLC analysis result, 60° C.: heating 60° C.; for HPLC analysis result, 60° C. / HPLC analysis result, RH90% / HPLC analysis result, Light: open in air; for HPLC analysis result, RH90%: humidity RH 90%; for HPLC analysis result, Light: illumination 4500 Lux
Excerpt: The stability investigation of different Ivabradine hydrochloride crystal form: three different solvents crystallization of samples were obtained in turn according to the method of example 4 except that Ivabradine sulfate is substituted with Ivabradine hydrochloride and ethanol is substituted with acetonitrile, ethyl acetate, acetone.
Moreover, α-form crystal samples can be obtained using toluene, N-methyl pyrrole as crystallization solvents according to the method disclosed in CN1583341A.
The four samples obtained above and the form I crystal of Ivabradine sulfate prepared in example 1 were placed opening in the air to test the stability in various conditions including illumination (4500 Lux), heating (60° C.), humidity (RH 90%).

[2] = pH of the Ivabradine sulfate aqueous solution; assay type: physicochemical; settings: C=1%
Protocol: (§1) 4.3 g of […] was dissolved in 100 ml of acetone, then 30 ml of acetone containing 1 g of sulfuric acid was added. The obtained mixture was stirred and white crystals were precipitated from the reaction solution. The resulting precipitate was collected by filtration, washed with acetone and then dried at 60° C. in vacuum for 3 hours to obtain 4.8 g of Ivabradine sulfate. Melting point was determined by capillary crystalline approach at 156˜158° C. Water content is 0.8%. The pH of the Ivabradine sulfate aqueous is about 1.8 (C=1%). Yield: 90.5%.
as §1, with “containing 0.4” for “containing 1”, “obtain 1.2” for “obtain 4.8”, “Yield: 55.5%. It is form I crystal of Ivabradine sulfate judged by X-ray and DSC patterns.” for “Yield: 90.5%.”

Structure (SMILES): COc1cc2c(cc1OC)CC(=O)N(CCCN(C)C[C@H]1Cc3cc(OC)c(OC)cc31)CC2 [Ivabradine hydrochloride 20080908, Ivabradine hydrochloride]
- HPLC analysis result, 60° C. ([1]; Time 0 day, hydrochloride): 99.56%
- HPLC analysis result, 60° C. ([1]; Time 5 days, hydrochloride): 98.74%
- HPLC analysis result, 60° C. ([1]; Time 10 days, hydrochloride): 99.04%
- HPLC analysis result, RH90% ([1]; Time 0 day, hydrochloride): 99.56%
- HPLC analysis result, RH90% ([1]; Time 5 days, hydrochloride): 99.03%
- HPLC analysis result, RH90% ([1]; Time 10 days, hydrochloride): 98.61%
- HPLC analysis result, Light ([1]; Time 0 day, hydrochloride): 99.56%
- HPLC analysis result, Light ([1]; Time 5 days, hydrochloride): 97.45%
- HPLC analysis result, Light ([1]; Time 10 days, hydrochloride): 94.91%

Structure (SMILES): COc1cc2c(cc1OC)CC(=O)N(CCCN(C)C[C@H]1Cc3cc(OC)c(OC)cc31)CC2 [Ivabradine hydrochloride 20080911, Ivabradine hydrochloride]
- HPLC analysis result, 60° C. ([1]; Time 0 day, hydrochloride): 99.55%
- HPLC analysis result, 60° C. ([1]; Time 5 days, hydrochloride): 99.31%
- HPLC analysis result, 60° C. ([1]; Time 10 days, hydrochloride): 99.12%
- HPLC analysis result, RH90% ([1]; Time 0 day, hydrochloride): 99.55%
- HPLC analysis result, RH90% ([1]; Time 5 days, hydrochloride): 99.10%
- HPLC analysis result, RH90% ([1]; Time 10 days, hydrochloride): 98.42%
- HPLC analysis result, Light ([1]; Time 0 day, hydrochloride): 99.55%
- HPLC analysis result, Light ([1]; Time 5 days, hydrochloride): 98.88%
- HPLC analysis result, Light ([1]; Time 10 days, hydrochloride): 98.07%

Structure (SMILES): COc1cc2c(cc1OC)CC(=O)N(CCCN(C)C[C@H]1Cc3cc(OC)c(OC)cc31)CC2 [Ivabradine hydrochloride 20080912, Ivabradine hydrochloride]
- HPLC analysis result, 60° C. ([1]; Time 0 day, hydrochloride): 99.57%
- HPLC analysis result, 60° C. ([1]; Time 5 days, hydrochloride): 99.36%
- HPLC analysis result, 60° C. ([1]; Time 10 days, hydrochloride): 99.05%
- HPLC analysis result, RH90% ([1]; Time 0 day, hydrochloride): 99.57%
- HPLC analysis result, RH90% ([1]; Time 5 days, hydrochloride): 99.20%
- HPLC analysis result, RH90% ([1]; Time 10 days, hydrochloride): 98.91%
- HPLC analysis result, Light ([1]; Time 0 day, hydrochloride): 99.57%
- HPLC analysis result, Light ([1]; Time 5 days, hydrochloride): 99.29%
- HPLC analysis result, Light ([1]; Time 10 days, hydrochloride): 98.87%

Structure (SMILES): COc1cc2c(cc1OC)CC(=O)N(CCCN(C)C[C@H]1Cc3cc(OC)c(OC)cc31)CC2 [Ivabradine sulfate 20080618, Ivabradine hydrochloride]
- HPLC analysis result, 60° C. ([1]; Time 0 day, hydrochloride): 99.54%
- HPLC analysis result, 60° C. ([1]; Time 5 days, hydrochloride): 99.50%
- HPLC analysis result, 60° C. ([1]; Time 10 days, hydrochloride): 99.46%
- HPLC analysis result, RH90% ([1]; Time 0 day, hydrochloride): 99.54%
- HPLC analysis result, RH90% ([1]; Time 5 days, hydrochloride): 99.23%
- HPLC analysis result, RH90% ([1]; Time 10 days, hydrochloride): 99.00%
- HPLC analysis result, Light ([1]; Time 0 day, hydrochloride): 99.54%
- HPLC analysis result, Light ([1]; Time 5 days, hydrochloride): 99.47%
- HPLC analysis result, Light ([1]; Time 10 days, hydrochloride): 99.42%

Structure (SMILES): COc1cc2c(cc1OC)CC(=O)N(CCCN(C)C[C@H]1Cc3cc(OC)c(OC)cc31)CC2 [Ivabradine sulfate 20080922, Ivabradine sulfate]
- HPLC analysis result, 60° C. ([1]; Time 0 day): 99.46%
- HPLC analysis result, 60° C. ([1]; Time 5 days): 99.42%
- HPLC analysis result, 60° C. ([1]; Time 10 days): 99.40%
- HPLC analysis result, RH90% ([1]; Time 0 day): 99.46%
- HPLC analysis result, RH90% ([1]; Time 5 days): 99.28%
- HPLC analysis result, RH90% ([1]; Time 10 days): 99.19%
- HPLC analysis result, Light ([1]; Time 0 day): 99.46%
- HPLC analysis result, Light ([1]; Time 5 days): 99.42%
- HPLC analysis result, Light ([1]; Time 10 days): 99.39%
- stability compared with the α-form crystal of Ivabradine hydrochloride ([1]; under high moisture conditions): more stable
- stability compared with the α-form crystal of Ivabradine hydrochloride ([1]; under the light and heat condition): similar
- stability compared with the polymorphism or mixed crystal of Ivabradine hydrochloride from acetonitrile, ethyl acetate, acetone ([1]; under various conditions): improved significantly
- pH of the Ivabradine sulfate aqueous [2]: about 1.8
